Data taken from patent US10265329B2, “Altering steroid metabolism for treatment of steroid-dependent disease” (THE CLEVELAND CLINIC FOUNDATION, priority 2015, dated 2019).
Residue numbers refer to the chain shown, from its start. pIC50: −log10 of the molar value.

How the values were obtained:
mutant AR (LNCaP) = biological target: T1, mutant AR (LNCaP) (Homo sapiens, UniProt P10275, T878A); test: AR competition assay with [3H]-R1881 in LNCaP cells; assay type: binding; conditions: for affinity for T877A mutant AR: [3H]-R1881, 30 min
T1 construct: endogenous in cells; host or cells: LNCaP
T1 sequence (P10275 1-920 T878A): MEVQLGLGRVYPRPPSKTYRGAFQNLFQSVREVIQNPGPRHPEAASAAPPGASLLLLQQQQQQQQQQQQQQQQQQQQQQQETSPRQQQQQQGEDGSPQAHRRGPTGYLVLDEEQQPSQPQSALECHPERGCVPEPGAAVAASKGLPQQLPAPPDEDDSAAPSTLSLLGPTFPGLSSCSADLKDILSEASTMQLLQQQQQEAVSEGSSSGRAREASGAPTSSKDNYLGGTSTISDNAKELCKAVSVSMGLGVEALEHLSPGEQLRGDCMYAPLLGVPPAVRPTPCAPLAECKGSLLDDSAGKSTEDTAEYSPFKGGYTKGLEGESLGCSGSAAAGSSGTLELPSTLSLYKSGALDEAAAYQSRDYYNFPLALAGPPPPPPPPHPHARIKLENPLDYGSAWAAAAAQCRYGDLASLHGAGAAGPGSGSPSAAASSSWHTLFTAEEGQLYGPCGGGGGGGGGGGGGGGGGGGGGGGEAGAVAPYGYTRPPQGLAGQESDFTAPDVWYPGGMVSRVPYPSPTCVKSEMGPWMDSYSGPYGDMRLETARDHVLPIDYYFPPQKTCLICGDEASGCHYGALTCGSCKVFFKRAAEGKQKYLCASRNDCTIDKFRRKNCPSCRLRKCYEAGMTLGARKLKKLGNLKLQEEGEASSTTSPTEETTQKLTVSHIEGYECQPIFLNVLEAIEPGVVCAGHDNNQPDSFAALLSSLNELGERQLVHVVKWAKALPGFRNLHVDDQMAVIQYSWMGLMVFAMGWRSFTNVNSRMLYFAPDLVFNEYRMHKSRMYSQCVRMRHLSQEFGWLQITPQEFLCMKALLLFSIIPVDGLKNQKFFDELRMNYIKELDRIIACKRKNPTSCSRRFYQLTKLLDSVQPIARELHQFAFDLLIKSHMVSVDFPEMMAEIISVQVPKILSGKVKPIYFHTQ
Procedure: (§1) Cells were cultured in serum-free medium for 48 h and then treated with [^3H]-R1881 and the indicated concentrations of D4A, Abi, enzalutamide, R1881 or bicalutamide for 30 min. Cells were washed with 1×PBS 4 times and 0.9% NaCl solution twice before lysis with RIPA buffer.
(§2) Cells were starved with phenol red-free and serum free-medium for at least 48 h and then treated with [^3H]-R1881 and the indicated concentrations of drugs for 30 min. Cells were washed thoroughly with PBS and then lysed with […].

wild-type AR (LAPC4) = biological target: T2, wild-type AR (LAPC4) (Homo sapiens, UniProt P10275); test: AR competition assay with [3H]-R1881 in LAPC4 cells; assay type: binding; conditions: for affinity for wild-type AR: [3H]-R1881, 30 min
T2 construct: endogenous in cells; host or cells: LAPC4
T2 sequence (P10275 1-920): T1 sequence (P10275 1-920 T878A) with A878T
Procedure: as §1, §2

Row | Compound | affinity for T877A mutant AR (mutant AR (LNCaP)) | affinity for wild-type AR (wild-type AR (LAPC4)) | pIC50 (mutant AR (LNCaP); competition with 0.1 nM [3H]-R1881, read-out: IC50, affinity for mutant AR) | pIC50 (wild-type AR (LAPC4); competition with 0.1 nM [3H]-R1881, read-out: IC50, affinity for wild-type AR)
1 | C[C@]12CC[C@@H](O)C[C@@H]1CC[C@@H]1[C@@H]2CC[C@]2(C)C(c3cccnc3)=CC[C@@H]12 [Compound 3α-OH-5α-Abi, 17-(3-pyridyl)-5α-androsta-16-ene-3α-ol] | lower | lower |  | 
2 | C[C@]12CCC(=O)C[C@@H]1CC[C@@H]1[C@@H]2CC[C@]2(C)C(c3cccnc3)=CC[C@@H]12 [Compound 5α-Abi, 17-(3-pyridyl)-5α-androsta-16-ene-3-one] | comparable to that of D4A | comparable to that of D4A |  | 
3 | C[C@]12CCC(=O)C=C1CC[C@@H]1[C@@H]2CC[C@]2(C)C(c3cccnc3)=CC[C@@H]12 [Compound D4A, 17-(3-Pyridyl)androsta-4,16-dien-3-one] |  |  | 8.28 | 8.10
